Values quoted from earlier work, collected in article PMC6472032 (Marine Drugs, 2019).

Details: in vivo; cited from earlier work

**Q.** Which mean terminal half-life does the source give for desmopressin here?
**A.** 3.7 h
